Measured values as given in patent US5798350A, “Dopamine receptor ligands” (Allelix Biopharmaceuticals, Inc., priority 1996, dated 1998).

Target: T1, human D4 receptors (Homo sapiens, UniProt P21917)
T1 construct: expressed in transfected cells
T1 sequence (P21917 1-419): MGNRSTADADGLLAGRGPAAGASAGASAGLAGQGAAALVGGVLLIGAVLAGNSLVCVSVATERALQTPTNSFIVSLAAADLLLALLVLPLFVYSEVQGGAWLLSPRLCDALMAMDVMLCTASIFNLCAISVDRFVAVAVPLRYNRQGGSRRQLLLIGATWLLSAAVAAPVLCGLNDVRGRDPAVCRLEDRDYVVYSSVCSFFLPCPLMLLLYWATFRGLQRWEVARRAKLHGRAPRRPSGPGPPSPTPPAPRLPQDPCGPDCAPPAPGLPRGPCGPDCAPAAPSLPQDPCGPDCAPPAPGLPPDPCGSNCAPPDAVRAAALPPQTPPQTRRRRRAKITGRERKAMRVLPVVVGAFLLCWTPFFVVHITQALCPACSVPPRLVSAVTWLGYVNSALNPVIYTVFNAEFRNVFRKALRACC
Test: Functional antagonist assay: reversal of dopamine inhibition of forskolin-stimulated adenyl cyclase (cAMP)
Format: cell-based
Conditions: dopamine and forskolin both 10 μM, read-out: % REVERSAL OF DOPAMINE EFFECT
Method: The D4 receptor responds to dopamine and other agonists by reducing adenyl cyclase mediated production of cyclic AMP. Particular test compounds were assayed for their ability to reverse dopamine inhibition of adenyl cyclase by the following procedure. Forskolin was used to elevate the basal adenyl cyclase activity.
CHO Pro 5 cells stably expressing human D4 receptors were plated in 6 well plates in DMEM (Dulbecco's Modified Eagle Medium)/F12(Nutrient Mixture F12 (Ham)) media with 10% FCS (fetal calf serum) and G418 (Geneticen Disulfate), and incubated at 37° C. in a CO2 incubator. The cells were allowed to grow to about 70% confluence before use in the assay.
The culture media of each well was removed by aspiration, and the wells were washed once with serum free media (SFM) (DMEM/F12) media. Then 2 mL of fresh SFM+IBMX media (SFM with 0.5 mM IBMX (3-isobutyl-1-methylxanthine0.1% ascorbic acid and 10 μM pargyline) was added to each well and then incubated at 37° C. for 10 minutes in CO2 incubator. Following incubation, SFM+IBMX media was aspirated and fresh SFM+IBMX media was added to wells separately with one of a) forskolin (10 μM final conc.); b) dopamine and forskolin (both 10 μM final conc.); and c) test compound ([…]), and dopamine and forskolin (both 10 μM final conc.). Basal adenyl cyclase activity was determined from wells with only SFM+IBMX media added.
The cells were then incubated at 37° C. for 30 minutes in a CO2 incubator. Following incubation the media was aspirated from each well and then washed once with 2 mL of PBS (phosphate buffered saline). Each well was then treated with 1 mL cold 95% ethanol:5 mM EDTA (2:1) at 4° C. for 1 h. The cells from each well were then scraped and transferred into individual Eppendorf tubes. The tubes were centrifuged for 5 minutes at 4° C., and the supernatants were transferred to new Eppendorf tubes. The pellets were discarded and the supernatants dried using a SpeedVac. The extracts were then reconstituted in 600 μL of 0.1M sodium acetate buffer, pH 6.1, and stored at 4° C. until assayed for cAMP concentration. cAMP content measured in fmoles/well for each extract was determined by EIA (enzyme-immunoassay) using Amersham Biotrak cAMP EIA kit (Amersham RPN 225).
Total inhibition (IO) of forskolin-stimulated adenyl cyclase activity by dopamine was determined as the difference in concentration of cAMP in the forskolin-treated cells (Cf) and dopamine-forskolin treated cells (Cd).
Net inhibition (I) of forskolin-stimulated adenyl cyclase activity by dopamine in the presence of an antagonist was determined as the difference in concentration of cAMP in the forskolin-treated cells (Cf) and test compound, dopamine and forskolin treated cells (C).
The ability of a test compound to reverse the dopamine inhibition (% reversal, %R) was determined by the formula: […]

Structure (SMILES)	inhibition at 1 µM	inhibition at 10 µM
Clc1ccc2c(c1)C=C(N1CCN(Cc3ccc4c(c3)OCO4)CC1)c1ccccc1S2 [2-chloro-10-(4-piperonyl-1-piperazinyl)dibenzo[b,f]thiepine]	47%	40%
Clc1ccc2c(c1)Nc1ccccc1N=C2N1CCN(Cc2ccc3c(c2)OCO3)CC1 [3-chloro-11-(4-piperonyl-1-piperazinyl)-5H-dibenzo[b,e][1,4]diazepine]	19%	50%
Clc1ccc2c(c1)N=C(N1CCN(Cc3ccc4c(c3)OCO4)CC1)c1ccccc1O2 [8-chloro-11-(4-piperonyl)-1-piperazinyl)dibenz[b,f][1,4]oxazepine]	46%	68%
c1ccc2c(c1)N=C(N1CCN(Cc3ccc4c(c3)OCO4)CC1)c1ccccc1O2 [11-(4-piperonyl)-1-piperazinyl)-dibenz[b,f][1,4]oxazepine]	40%	50%
